Experimental data reported in patent US20230382998A1, “METHODS FOR TREATING INFLAMMATORY BOWEL DISEASES WITH a4B7 INTEGRIN ANTAGONISTS” (Protagonist Therapeutics, Inc., priority 2022, published 2023).
Numbered stars: 1 amine (or outer) side, 2 acyl side, 3 side chain; on linkers, the order of the positions; unused ones are H or OH. Bridge positions count the residues as written; N and C are the ends. Square brackets hold non-standard residues; d marks the D form. Peptide text beside a SMILES is read from it. I, II: the chains in the order shown. ξ: configuration not given here. Phe(4-tBu) = CC(C)(C)c1ccc(C[C@H](N)C(=O)O)cc1; Diglycolyl = O=C(COCC(=O)[*:2])[*:1]; NMeR = CN[C@@H](CCCNC(=N)N)C(=O)O; β3hE = N[C@@H](CCC(=O)O)CC(=O)O; Thr(3ξ) = CC(O)[C@H](N)C(=O)O; X1 = O=C(c1ccccc1C[*:2])[*:1]; Pen = CC(C)(S)[C@H](N)C(=O)O

How the values were obtained:
[1] = tested on: subjects with moderate to severe active ulcerative colitis; assay: Phase 2 randomized, double-blind, placebo-controlled study of oral Compound (I), 12-week induction; format: in vivo, human; conditions: FIG. 3; for proportion of subjects achieving clinical remission at Week 12, total: 150 mg BID + 450 mg BID
From the text: As used herein, the term “clinical remission rate” refers to when the symptoms of IBD have lessened to the point that they're mostly absent or gone, including endoscopic remission, wherein inflammation is seen during a colonoscopy or a sigmoidoscopy and determined by a healthcare provider that the lining of the digestive tract is improved or healed. […] As used herein, the term “compound of formula (I)” or Compound (I) refers to a peptide compound having the following structure:
The study also evaluates the pharmacokinetic (PK) and pharmacodynamics (PD) and biomarker responses to treatment with oral Compound (I).
This is a two-part study: Part 1 is a randomized, double-blind, placebo-controlled, parallel design 12-week induction treatment period in patients with moderate to severe active UC; and Part 2 is an extended treatment period of 40 weeks that will include subjects who successfully complete Part 1. Subjects who complete the Week 12 visit for Part 1 will be eligible to enter Part 2.
Part 1 is a 12-week randomized, double-blind, placebo-controlled, parallel design study in adult subjects with moderate to severe active UC. Eligible subjects are randomized 1:1:1 to Compound (I) 450 mg twice daily (BID), Compound (I) 150 mg BID, or placebo BID. Subjects must have a biopsy-confirmed diagnosis of UC. […] Subjects with a history of prior vedolizumab treatment will be excluded. Randomization will be stratified by prior failure to a TNFα antagonist or an IL-12/23 antagonist.
Primary outcome measures include the proportion of subjects achieving clinical remission at Week 12 compared to placebo. Clinical remission is determined using the Adapted Mayo score (sum of 3 subscores from the Mayo score): • Stool frequency subscore (SFS) • Rectal bleeding subscore (RBS) • Endoscopic subscore (ESS)
Efficacy is assessed, at least in part, based on the Mayo score. The Mayo score includes 4 components: Stool Frequency Subscore (SFS), Rectal Bleeding Subscore (RBS), Endoscopic Subscore (ESS) and Physician's Global Assessment (PGA). Each of the individual scores range from 0 to 3 with higher number indicating higher severity): • Complete Mayo Score is a sum of all 4 subscores (SFS, RBS, ESS and PGA) and ranges from 0 to 12 points. • Adapted Mayo Score is a sum of 3 subscores (SFS, RBS and ESS). The Adapted Mayo score ranges from 0 to 9 points. • Partial Mayo Score is a sum of 3 subscores (SFS, RBS and PGA) ranging from 0 to 9 points.
Blood samples for measurement of Compound (I) plasma concentrations will be collected at 0 (within 1 hour pre-dose) and at 1, 2, and 4 hours post-dose on Week 0 (Study Day 1) and Week 12. A single pre-dose sample should be collected within 1 hour prior to the first dose of the day on each clinic visit.
Blood (4 mL) samples for PK analysis will be obtained in K2EDTA tubes prior to dosing and at the time points delineated in the study schedule. All samples (except those collected post-dose on Day 0 and Day 84) should be obtained prior to the daily dosing of study drug (i.e. Ctrough).

[2] = DTT (Dithiothreitol) assay, stability to gastric environment under reduced conditions; format: physicochemical
Method: The compound of formula (I) or a pharmaceutically acceptable salt thereof comprises a half-life from approximately 1 minute to approximately 180 minutes.

[3] = trough concentration quartile Q1 at week 12
[4] = trough concentration quartile Q2 at week 12
[5] = trough concentration quartile Q3 at week 12
[6] = trough concentration quartile Q4 at week 12

In the case of `CC(C)C[C@@H]1NC(=O)[C@H](C(C)O)NC(=O)[C@H](CC(=O)O)NC(=O)[C@H](CO)NC(=O)[C@H](CCCNC(=N)N)N(C)C(=O)c2ccccc2CSC(C)(C)[C@@H](C(=O)N[C@@H](Cc2ccc(C(C)(C)C)cc2)C(=O)N[C@@H](CCC(=O)O)CC(=O)N[C@H](CCCCNC(=O)COCC(=O)NCCCC[C@@H](NC(=O)C[C@H](CCC(=O)O)NC(=O)[C@H](Cc2ccc(C(C)(C)C)cc2)NC(=O)[C@H]2NC(=O)[C@H](CC(C)C)NC(=O)[C@H](C(C)O)NC(=O)[C@H](CC(=O)O)NC(=O)[C@H](CO)NC(=O)[C@H](CCCNC(=N)N)N(C)C(=O)c3ccccc3CSC2(C)C)C(=O)O)C(=O)O)NC1=O` (stereo partly drawn) [compound of formula (I)] (I: [NMeR]SD[Thr(3ξ)]L[Pen][Phe(4-tBu)][β3hE][dK]-OH / II: [NMeR]SD[Thr(3ξ)]L[Pen][Phe(4-tBu)][β3hE][dK]-OH; linker I:9-II:9 via Diglycolyl; linker I:N-I:6, II:N-II:6 via X1), the “proportion of subjects achieving clinical remission at Week 12, total” value (“proportion … total” for short) [1, 3] is reported as 33.3%, the “proportion of subjects achieving clinical remission at Week 12, part being 450 mg BID dose” value (“proportion … part being 450 mg BID dose” for short) [1, 3] is reported as 26.7% and the “proportion … total” value [1, 4] is reported as 40%. The “proportion … part being 450 mg BID dose” value [1, 4] was 26.7%, the “proportion … total” value [1, 5] was 13.3% and the “proportion … part being 450 mg BID dose” value [1, 5] was 6.7%. For the same compound, the “proportion … total” value [1, 6] was 18.8%, the “proportion … part being 450 mg BID dose” value [1, 6] was 6.3% and the half-life [2] was over 2 h.
